Experimental data reported in patent US10912788B2, “Methods and compositions for preventing and treating conditions related to alpha-synuclein” (PurePharm, Inc., priority 2018, dated 2021).

What was measured:
[1] = system: PD patients with chronic constipation; experiment: Open-label pilot study of GlcNAc (Villicote) on motor and constipation symptoms in Parkinson's Disease; type: in vivo, human
From the text: Participants were enlisted in a movement disorders outpatient clinic in Toronto, Canada. Inclusion criteria were a diagnosis of PD according to UK PD society brain bank criteria and chronic constipation that was not improved by laxatives. Exclusion criteria were the co-occurrence of conditions biasing results and/or changes of medications (including anti-constipation drugs).
This was an open-label study that sought to evaluate the efficacy of GlcNAc (Villicote®, Wellesley Therapeutics Inc.) on PD patients with chronic constipation who have previously used laxatives to relieve symptoms of constipation, to little or no avail. […] The self-reported assessments evaluated motor condition and dysfunction (fluctuation and dyskinesia) using section IV of the Unified Parkinson's Disease Rating Scale (UPDRS IV) and asking about presence and frequency of delayed onset (Delayed ON) and Failure of “on” response (no ON); Perceived severity and improvement in of motor dysfunction, and constipation by means of both Patients' Global Impression-Severity (PGI-S) and Patients' Global Impressions of Change (PGI-C) scale accordingly. Severity of Constipation was also evaluated by means of questions 5 and 6 of SCOPA-AUT [17] and the Constipation Scoring System (CSS). In addition, side-effects experienced while on Villicote and qualitative feedback on the product was noted.
Their age and disease duration was 65.7±7.5 and 11.7±5.1 years, respectively. Mean UPDRS-III at study entry was 22.1±10.9.

[2] = cited from earlier work
[3] = system: pediatric treatment-resistant inflammatory bowel disease (Crohn's disease and ulcerative colitis patients); conditions: oral administration; reduced symptoms of gut inflammation, increased sulphated GAG expression; cited from earlier work
[4] = PD patients treated with GlcNAc
[5] = PD patients treated with GlcNAc, motor fluctuations

CC(=O)N[C@H]1C(O)O[C@H](CO)[C@@H](O)[C@@H]1O (some centres unmarked) [GlcNAc, N-acetylglucosamine]
No-ON ([1]; After GlcNAc, 1 month time point, PD patients, before GlcNAc 0.0): 0.0 | Delayed-ON ([1]; After GlcNAc, 1 month time point, PD patients, before GlcNAc 0.1 ± 0.4): 0.1 ± 0.4 | SCOPA-AUT (questions 5 and 6) ([1]; After GlcNAc, 1 month time point, PD patients, before GlcNAc 3.9 ± 1.9): 3.1 ± 1.7 | UPDRS-IV ([1]; After GlcNAc, 1 month time point, PD patients, before GlcNAc 3.9 ± 2.4): 3.9 ± 2.4 | CSS (Constipation Scoring System) ([1]; After GlcNAc, 1 month time point, PD patients, before GlcNAc 9.4 ± 6.1, Wilcoxon Z=−2.043, P=0.041): 6.5 ± 3.9 | tolerability ([1]; PD patients): well-tolerated | anti-constipation effect ([1]; PD patients failing drugs for constipation): effective anti-constipation agent | PGI-I Constipation [1, 4]: 1.6 ± 1.4 | PGI-S Constipation [1, 4]: 2.8 ± 1.3 | PGI-I Fluctuation [1, 5]: 0 | PGI-S Fluctuation [1, 5]: 0.8 ± 0.9 | effect on motor functions ([1]; PD patients, short follow-up): No effect was observed | solubility in water [2]: 25% | efficacy in pediatric treatment-resistant inflammatory bowel disease [3]: therapeutic efficacy
